For one series, the system named is db/db mice. Kind of series: Fasting blood glucose of gene-deficient db/db mice, chronic administration. It is filed as in vivo.
A further series relates to normal ICR mice. Kind of series: Oral glucose tolerance of normal ICR mice. It is filed as in vivo.
The next series in a line: Pharmacokinetics in rats. It is filed as in vivo.
The nature of another series: Pharmacokinetics in dogs. It is filed as in vivo.
The subject of a further series is ICR mice. Kind of series: Acute toxicity test of ICR mice. The series is classed as in vivo. The note with it: 300 mg/kg administration group.
Series [1] concerns the target T1, DPP IV (Mus musculus, UniProt P28843).
T1 construct: from tissue; host or cells: plasma of normal mice
Description: Inhibition of DPP IV activity in normal mice plasma. The series is classed as in vivo.

The target of series [2] is DPP IV (Homo sapiens, UniProt P27487). Description: DPP IV inhibitory activity and selectivity in vitro. It is filed as biochemical.
A further series deals with ob/ob mice. Kind of series: Fasting blood glucose of ob/ob mice, chronic administration. The series is classed as in vivo.
Another series deals with rats. Kind of series: Subacute toxicity experiment of rats. The series is classed as in vivo. The note with it: 150 mg/kg orally administrated group.
Series [3] has as its target T2, DPP IV (Rattus norvegicus, UniProt P14740).
T2 construct: from tissue; host or cells: plasma of normal rats
Description: Inhibition of DPP IV activity in normal rat plasma. The series is classed as in vivo.

Series [4] in a line: Hygroscopicity analysis (DVS). It is filed as physicochemical. The note with it: for hygroscopicity (DVS): 25° C.; for water absorbed: at 80% RH; for humidity variation range: conventional storage humidity range. How it is done:
Dynamic vapor absorption (DVS) test/water absorption test rapidly measures the increase and loss of the moisture in the sample caused by flow carrier gas with set relative humidity (RH), wherein the sample is placed on a digital microbalance with high sensitivity and high stability at a self-suspension state, and then the adsorption/desorption of water vapor is measured by measuring the increase/decrease of mass of the material, thereby determining the hygroscopicity of the sample.
In the present invention, the test parameters of the DVS are as follows: Instrument type: SMS DVS Intrinsic; Non-hydrate: 0 to 95%-0% RH; Temperature: 25° C.; Hydrate: 40 to 95%-0% RH; Temperature: 25° C.

Where [5] appears, read: versus sitagliptin and vildagliptin.

DPP IV (Homo sapiens, UniProt P27487), sequence (P27487 whole entry, species assumed): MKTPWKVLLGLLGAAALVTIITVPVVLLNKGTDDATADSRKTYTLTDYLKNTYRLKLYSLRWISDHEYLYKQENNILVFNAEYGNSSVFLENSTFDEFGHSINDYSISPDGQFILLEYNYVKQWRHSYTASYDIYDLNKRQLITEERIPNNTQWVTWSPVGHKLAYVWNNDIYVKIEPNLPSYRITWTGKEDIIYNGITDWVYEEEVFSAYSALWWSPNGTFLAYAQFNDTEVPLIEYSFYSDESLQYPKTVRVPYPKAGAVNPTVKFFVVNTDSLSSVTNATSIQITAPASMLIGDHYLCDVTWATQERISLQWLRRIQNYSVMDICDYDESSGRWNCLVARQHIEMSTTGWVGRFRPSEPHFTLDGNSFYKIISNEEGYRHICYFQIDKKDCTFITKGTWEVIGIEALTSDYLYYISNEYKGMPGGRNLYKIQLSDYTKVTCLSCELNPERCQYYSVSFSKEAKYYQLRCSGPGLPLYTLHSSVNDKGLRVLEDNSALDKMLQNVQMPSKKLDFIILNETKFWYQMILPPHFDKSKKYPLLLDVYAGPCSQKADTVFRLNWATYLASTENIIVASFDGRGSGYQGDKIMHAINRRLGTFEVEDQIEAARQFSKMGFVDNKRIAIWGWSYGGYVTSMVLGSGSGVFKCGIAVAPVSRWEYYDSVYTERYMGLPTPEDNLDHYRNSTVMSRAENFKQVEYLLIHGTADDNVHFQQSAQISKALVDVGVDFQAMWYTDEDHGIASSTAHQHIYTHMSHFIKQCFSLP
T1 sequence (P28843 37-760 limits assumed): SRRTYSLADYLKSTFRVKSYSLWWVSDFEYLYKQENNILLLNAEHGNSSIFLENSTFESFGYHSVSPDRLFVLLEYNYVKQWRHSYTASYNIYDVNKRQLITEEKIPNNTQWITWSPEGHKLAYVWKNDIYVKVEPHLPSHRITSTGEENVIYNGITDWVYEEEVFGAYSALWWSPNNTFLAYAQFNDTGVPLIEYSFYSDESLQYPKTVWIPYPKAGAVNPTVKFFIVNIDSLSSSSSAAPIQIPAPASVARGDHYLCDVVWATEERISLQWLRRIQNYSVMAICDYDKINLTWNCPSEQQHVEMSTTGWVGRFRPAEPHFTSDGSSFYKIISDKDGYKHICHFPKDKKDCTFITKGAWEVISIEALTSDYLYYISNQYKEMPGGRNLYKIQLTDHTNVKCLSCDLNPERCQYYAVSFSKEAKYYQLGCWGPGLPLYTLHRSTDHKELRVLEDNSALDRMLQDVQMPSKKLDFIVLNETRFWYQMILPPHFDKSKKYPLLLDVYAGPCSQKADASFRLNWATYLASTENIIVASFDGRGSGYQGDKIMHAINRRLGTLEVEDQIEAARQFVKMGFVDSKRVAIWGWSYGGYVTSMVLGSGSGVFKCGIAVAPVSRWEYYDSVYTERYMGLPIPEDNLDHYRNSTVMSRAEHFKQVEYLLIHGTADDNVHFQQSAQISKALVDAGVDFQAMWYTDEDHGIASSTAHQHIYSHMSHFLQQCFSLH
T2 sequence (P14740 37-767 limits assumed): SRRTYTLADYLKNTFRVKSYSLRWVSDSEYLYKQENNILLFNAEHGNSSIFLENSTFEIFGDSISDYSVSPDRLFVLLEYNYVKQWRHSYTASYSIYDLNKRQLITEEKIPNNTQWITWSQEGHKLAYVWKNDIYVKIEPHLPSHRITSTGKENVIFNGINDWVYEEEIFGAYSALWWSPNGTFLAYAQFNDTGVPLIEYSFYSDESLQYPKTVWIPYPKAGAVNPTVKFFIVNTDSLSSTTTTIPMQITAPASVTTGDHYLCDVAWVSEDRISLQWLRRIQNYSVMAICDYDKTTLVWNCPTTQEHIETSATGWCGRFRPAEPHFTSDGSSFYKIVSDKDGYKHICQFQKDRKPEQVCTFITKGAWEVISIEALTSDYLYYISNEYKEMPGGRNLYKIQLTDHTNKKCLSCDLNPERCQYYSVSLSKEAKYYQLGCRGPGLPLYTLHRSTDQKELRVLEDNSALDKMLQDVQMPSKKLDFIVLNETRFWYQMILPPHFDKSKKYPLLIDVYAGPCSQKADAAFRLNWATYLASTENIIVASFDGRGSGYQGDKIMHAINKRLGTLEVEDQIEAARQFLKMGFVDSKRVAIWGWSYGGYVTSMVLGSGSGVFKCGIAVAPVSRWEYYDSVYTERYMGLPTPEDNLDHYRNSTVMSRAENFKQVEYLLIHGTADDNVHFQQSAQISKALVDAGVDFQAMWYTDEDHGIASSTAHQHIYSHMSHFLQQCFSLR

Turning to `COC(=O)c1cc2nc(N3CCC[C@@H](N)C3)n(Cc3ccccc3C#N)c(=O)c2s1` [compound of formula I, (R)-methyl-2-(3-aminopiperidin-1-yl)-3-(2-cyanobenzyl)-4-carbonyl-3,4-dihydrothiophene[3,2-d]pyrimidine-6-carboxylic acid], in the series on db/db mice, the “effect on fasting blood glucose” value is given as “reduce its fasting blood glucose” and the “fasting blood glucose effect compared with positive control alogliptin” value was “comparable to the positive control drug alogliptin”. Further, in the series with normal ICR mice, the “effect on oral glucose tolerance” value is “increase the oral glucose tolerance of normal ICR mice in a dose-dependent manner”; the “onset dose, oral glucose tolerance” value worked out at 0.1 mg/kg; the “oral glucose tolerance effect compared with alogliptin” value was “better than alogliptin”. Besides, in the series “Pharmacokinetics in rats”, the “AUC0-t compared with alogliptin” value is reported as “superior to those of the marketed drug alogliptin” and the “half-life compared with alogliptin” value was “superior to those of the marketed drug alogliptin”. In “Pharmacokinetics in dogs”, the “AUC0-t compared with alogliptin” value is “superior to those of the marketed drug alogliptin” and the “half-life compared with alogliptin” value is recorded as “superior to those of the marketed drug alogliptin”. Moreover, the “acute toxicity, animal death” value with ICR mice is on record as “no animal died”. For the same compound, at DPP IV [1], the “DPP IV inhibitory activity in animals compared with alogliptin” value was “superior to the marketed drug alogliptin” and the “inhibition of DPP IV activity in plasma” value is reported as “effective in inhibiting DPP IV activity”. Also, the “DPP IV inhibitory activity” value on DPP IV [2] (in vitro) is reported as “up to nanomolar level”. On DPP IV [2] (setting [5]), the “DPP IV inhibitory activity in vitro compared with marketed drugs” value is “superior to the marketed drugs, sitagliptin and vildagliptin”; the “selectivity in vitro compared with marketed drugs” value is “superior to the marketed drugs, sitagliptin and vildagliptin”. In the series on ob/ob mice, the “effect on fasting blood glucose” value was “effectively decrease fasting blood glucose” and the “fasting blood glucose effect compared with positive control alogliptin” value was “superior to the positive control drug alogliptin”. Moreover, the subacute toxicity result with rats is “no obvious toxicity reaction”. Besides, on DPP IV [3], the “DPP IV inhibitory activity in animals compared with alogliptin” value was “superior to the marketed drug alogliptin” and the “inhibition of DPP IV activity in plasma” value was “effective in inhibiting DPP IV activity”.

With `COC(=O)c1cc2nc(N3CCC[C@@H](N)C3)n(Cc3ccccc3C#N)c(=O)c2s1.Cl` [hydrochloride, hydrochloride of (R)-methyl-2-(3-aminopiperidin-1-yl)-3-(2-cyanobenzyl)-4-carbonyl-3,4-dihydrothiophene [3,2-d] pyrimidine-6-carboxylic acid], in [4], the “hygroscopicity (DVS)” value is “slightly hygroscopic”, the water absorbed came to 2.54% and the humidity variation range entry is on record as “less than 3.0%”.

For the compound `COC(=O)c1cc2nc(N3CCC[C@@H](N)C3)n(Cc3ccccc3C#N)c(=O)c2s1.O=C(O)/C=C\C(=O)O` [maleate, maleate of (R)-methyl-2-(3-aminopiperidin-1-yl)-3-(2-cyanobenzyl)-4-carbonyl-3,4-dihydrothiophene[3,2-d]pyrimidine-6-carboxylic acid], in series [4], the “hygroscopicity (DVS)” value is on record as “slightly hygroscopicity”, the water absorbed was 1.57% and the humidity variation range result is “less than 2.0%”.

Take `COC(=O)c1cc2nc(N3CCC[C@@H](N)C3)n(Cc3ccccc3C#N)c(=O)c2s1.O=P(O)(O)O` [phosphate, phosphate of (R)-methyl-2-(3-aminopiperidin-1-yl)-3-(2-cyanobenzyl)-4-carbonyl-3,4-dihydrothiophene[3,2-d]pyrimidine-6-carboxylic acid]: in series [4], the “hygroscopicity (DVS)” value is given as “slightly hygroscopic” and the humidity variation range result was “small”.

As for “glycolate of (R)-methyl-2-(3-aminopiperidin-1-yl)-3-(2-cyanobenzyl)-4-carbonyl-3,4-dihydrothiophene[3,2-d]pyrimidine-6-carboxylic acid”, in series [4], the “hygroscopicity (DVS)” value is recorded as “slightly hygroscopic”, the water absorbed was found to be 1.23% and the humidity variation range entry is on record as “less than 2.0%”.
